Among the data in US5834487A, “Inhibition of 26S and 20S proteasome by indanones” (CV Therapeutics, priority 1996, dated 1998) are IC50 values, retold here.

Values after ≈ are worked out from the molar mass of the structure shown. Where only a bound is given, the exact number is not on record here.

The test has as its target T1, 20S catalytic subunit of the proteasome (multicatalytic proteinase complex) (Bos taurus, UniProt Q32KL2).
T1 construct: was purified to homogeneity from bovine brain according to published methods; from tissue; host or cells: bovine brain
Nature of the test: 20S proteasome chymotryptic activity, fluorogenic peptide cleavage. It counts as biochemical, bovine. Conditions: 50 μM succinyl-leu-leu-val-tyr-7-amino-4-methyl coumarin, 15 minutes at 37° C, pH7.5. The procedure:
Compounds of this invention prepared according to the method of Example 1 were tested as follows. The 20S catalytic subunit of the proteasome (also known as the multicatalytic proteinase complex) was purified to homogeneity from bovine brain according to published methods (Wilk S. and Orlowski, M, 40 842 J. Neurochem (1983)). The chymotryptic activity of the complex is measured by the increase in fluorescence following cleavage of the substrate peptide succinyl-leucine-leucine-valine-tyrosine-7-amino-4-methyl coumarin. The standard in vitro assay consists of 2 μg 20S proteasome, 0.1-100 μg/ml proteasome inhibitor in 200 μl 50 mM HEPES, containing 0.1% sodium dodecyl sulphate, pH7.5. The proteolytic reaction is initiated by the addition of 50 μM fluorogenic peptide substrate and allowed to progress for 15 minutes at 37° C. The reaction is terminated by the addition of 100 μl of 100 mM acetate buffer, pH4.0. The rate of proteolysis is directly proportional to the amount of liberated aminomethylcoumarin which is measured by fluorescent spectroscopy (EX 370 nm, EM 430 nm).
For the compound `COc1ccc2c(c1)C(CC(=O)NC(CC(C)C)C(=O)NC(CC(C)C)C(=O)NCC(N)=O)CC2=O` (mixture of isomers) [Compound 17], the IC50 was more than 10 µg/mL. The figure for `COc1ccc2c(c1)C(CC(=O)N1CCCC1C(=O)NC(CC(C)C)C(N)=O)CC2=O` (mixture of isomers) [Compound 31] is 10 µg/mL; for `CCCC[C@@H](NC(=O)[C@H](CC(C)C)NC(=O)CC1CC(=O)c2ccc(OC)cc21)C(=O)NCC(N)=O` (stereo partly shown) [Compound 86] it is more than 10 µg/mL; for `COc1ccc2c(c1)C(CC(=O)NC(CC(C)C)C(=O)NC(CC(C)C)C(=O)NC(C)(C)C(N)=O)CC2=O` (mixture of isomers) [Compound 170] it is more than 10 µg/mL. The compound `CCCCC(NC(=O)CC1CC(=O)c2ccc(OC)cc21)C(=O)NC(CC(C)C)C(N)=O` (mixture of isomers) [Compound 23] yielded an IC50 of more than 10 µg/mL.

Regarding `COc1ccc2c(c1)C(CC(=O)NC(CC(C)C)C(=O)NCC(=O)NCC(N)=O)CC2=O` (mixture of isomers) [Compound 41], the IC50 is more than 10 µg/mL. To `COc1ccc2c(c1)C(CC(=O)NC(CC(C)C)C(=O)NC(CC(C)C)C(=O)NC(C)C(N)=O)CC2=O` (mixture of isomers) [Compound 125] belongs more than 10 µg/mL; to `COc1ccc2c(c1)C(CC(=O)N1CCC(O)(c3ccccc3)CC1)CC2=O` (stereo not shown) [Compound 151], more than 10 µg/mL. The figure for `COc1ccc(CNC(=O)CC2CC(=O)c3ccc(OC)cc32)cc1` (stereo not shown) [Compound 85] is more than 10 µg/mL; for `COc1ccc2c(c1)C(CC(=O)N[C@@H](CC(C)C)C(=O)N[C@H](CC(C)C)C(=O)NCC(N)=O)CC2=O` (single isomer, unassigned) [Compound 50] it is 0.5 µg/mL (≈ 0.995 µM); for `COc1ccc2c(c1)C(CC(=O)NC(CO)C(O)c1ccccc1)CC2=O` (stereo not shown) [Compound 118] it is more than 10 µg/mL. To `COc1ccc2c(c1)C(CC(=O)NCCCc1ccccc1)CC2=O` (racemic) [Compound 161] belongs more than 50 µg/mL. `COc1ccc2c(c1)C(CC(=O)NC(CC(C)C)C(=O)NC(CC(C)C)C(=O)NCCO)CC2=O` (mixture of isomers) [Compound 178] came in with an IC50 of more than 10 µg/mL. The figure for `COc1ccc2c(c1)C(CC(=O)N(CCO)Cc1ccccc1)CC2=O` (stereo not shown) [Compound 76] is more than 10 µg/mL; for `COc1ccc2c(c1)C(CC(=O)N1CCSCC1)CC2=O` (stereo not shown) [Compound 106] it is more than 10 µg/mL. To `COc1ccc2c(c1)C(CC(=O)NC(CC(C)C)C(=O)NC(CC(C)C)C(=O)NC(Cc1ccccc1)C(N)=O)CC2=O` (mixture of isomers) [Compound 128] belongs more than 10 µg/mL; to `COc1ccc2c(c1)C(CC(=O)NCCN1CCCC1)CC2=O` (stereo not shown) [Compound 112], more than 10 µg/mL.

Take `COc1ccc2c(c1)C(CC(=O)NCc1ccncc1)CC2=O` (stereo not shown) [Compound 104]: the IC50 was more than 10 µg/mL. To `COc1ccc2c(c1)C(CC(=O)NC(CC(C)C)C(=O)NC(C(N)=O)c1ccccc1)CC2=O` (mixture of isomers) [Compound 140] belongs more than 10 µg/mL. To `COc1ccc2c(c1)C(CC(=O)N(Cc1ccccc1)Cc1ccccc1)CC2=O` (stereo not shown) [Compound 39] belongs more than 10 µg/mL. For the compound `COc1ccc2c(c1)C(CC(=O)NC1CCC1)CC2=O` (stereo not shown) [Compound 69], the IC50 was more than 10 µg/mL. Compound `COc1ccc2c(c1)C(CC(=O)Nc1ccnc(S)n1)CC2=O` (racemic) [Compound 158] yielded an IC50 of more than 10 µg/mL. To `CCN(CC)C(=O)CC1CC(=O)c2ccc(OC)cc21` (stereo not shown) [Compound 68] belongs more than 10 µg/mL. As to `CCCC(NC(=O)C(CC(C)C)NC(=O)CC1CC(=O)c2ccc(OC)cc21)C(N)=O` (mixture of isomers) [Compound 139], the IC50 is more than 10 µg/mL. To `COc1ccc2c(c1)C(CC(=O)NCc1ccc3c(c1)OCO3)CC2=O` (racemic) [Compound 163] belongs more than 50 µg/mL; to `COCCCNC(=O)CC1CC(=O)c2ccc(OC)cc21` (stereo not shown) [Compound 71], more than 10 µg/mL; to `COc1ccc2c(c1)C(CC(=O)NC(Cc1c[nH]c3ccccc13)C(=O)NC(CC(C)C)C(N)=O)CC2=O` (mixture of isomers) [Compound 103], more than 10 µg/mL.

In turn, `CCCCC(NC(=O)C(CC(C)C)NC(=O)CC1CC(=O)c2ccc(OC)cc21)C(N)=O` (mixture of isomers) [Compound 134] registered an IC50 of more than 10 µg/mL. The figure for `COc1ccc(CN(C(=O)CC2CC(=O)c3ccc(OC)cc32)c2ccccn2)cc1` (stereo not shown) [Compound 149] is more than 10 µg/mL; for `COc1ccc2c(c1)C(CC(=O)NC(C)C(=O)NC(CC(C)C)C(N)=O)CC2=O` (mixture of isomers) [Compound 59] it is more than 10 µg/mL; for `COc1ccc2c(c1)C(CC(=O)N(C)Cc1ccccc1)CC2=O` (stereo not shown) [Compound 73] it is more than 10 µg/mL.

For `COc1ccc2c(c1)C(CC(=O)NC(CCC(N)=O)C(=O)NC(CC(C)C)C(N)=O)CC2=O` (mixture of isomers) [Compound 98], the IC50 is more than 10 µg/mL.

`COc1ccc2c(c1)C(CC(=O)NC(CC(C)C)C(=O)NC(CCCNC(=N)N)C(N)=O)CC2=O` (mixture of isomers) [Compound 129] had an IC50 of more than 10 µg/mL.

With `COc1ccc2c(c1)C(CC(=O)NC(C(=O)NC(C(N)=O)C(C)C)C(C)C)CC2=O` (mixture of isomers) [Compound 34], the IC50 is more than 10 µg/mL.

`COc1ccc2c(c1)C(CC(=O)NCC(=O)NCC(=O)NCC(N)=O)CC2=O` (stereo not shown) [Compound 40]: the IC50 is more than 10 µg/mL. To `COc1ccc2c(c1)C(CC(=O)NC(CCC(=O)O)C(=O)NC(CC(C)C)C(N)=O)CC2=O` (mixture of isomers) [Compound 97] belongs more than 10 µg/mL; to `COc1ccc2c(c1)C(CC(=O)NC(CC(C)C)C(=O)NC(C(N)=O)C(C)C)CC2=O` (mixture of isomers) [Compound 33], more than 10 µg/mL; to `COc1ccc2c(c1)C(CC(=O)NC(CC(C)C)C(=O)N1CCCC1C(=O)NCC(N)=O)CC2=O` (mixture of isomers) [Compound 92], more than 10 µg/mL. The figure for `COc1ccc2c(c1)C(CC(=O)NC(CC(C)C)C(=O)NC(CCCCN)C(N)=O)CC2=O` (mixture of isomers) [Compound 138] is more than 10 µg/mL; for `COc1ccc2c(c1)C(CC(=O)NC(CC1CCCCC1)C(=O)NC(CC1CCCCC1)C(N)=O)CC2=O` (mixture of isomers) [Compound 35] it is more than 10 µg/mL.

As for `COc1ccc2c(c1)C(CC(=O)NC(CC(C)C)C(=O)NC(CC(C)C)C(=O)N(C)Cc1ccccc1)CC2=O` (mixture of isomers) [Compound 179], the IC50 was more than 10 µg/mL. `COc1ccc2c(c1)C(CC(=O)NC(CC(C)C)C(=O)NC(C)C(N)=O)CC2=O` (mixture of isomers) [Compound 52] displayed an IC50 of more than 10 µg/mL. To `COCCN(CCOC)C(=O)CC1CC(=O)c2ccc(OC)cc21` (racemic) [Compound 169] belongs more than 50 µg/mL; to `COc1ccc2c(c1)C(CC(=O)NCC(=O)NC(CC(C)C)C(=O)NCC(N)=O)CC2=O` (mixture of isomers) [Compound 42], more than 10 µg/mL. The compound `COc1ccc2c(c1)C(CC(=O)Nc1ccc(Cl)cn1)CC2=O` (racemic) [Compound 156] registered an IC50 of more than 10 µg/mL. The figure for `COc1ccc2c(c1)C(CC(=O)N1CCC(O)C1)CC2=O` (stereo not shown) [Compound 109] is more than 10 µg/mL.

Take `COc1ccc2c(c1)C(CC(=O)NC(CC(C)C)C(=O)NC(CC(C)C)C(=O)NC(C(N)=O)C(C)C)CC2=O` (mixture of isomers) [Compound 123]: the IC50 is more than 10 µg/mL. To `COc1ccc2c(c1)C(CC(=O)NC(Cc1ccc(O)cc1)C(=O)NC(CC(C)C)C(N)=O)CC2=O` (mixture of isomers) [Compound 102] belongs more than 10 µg/mL; to `CCCCC(NC(=O)CC1CC(=O)c2ccc(OC)cc21)C(N)=O` (mixture of isomers) [Compound 8], more than 10 µg/mL.

As for `COc1ccc2c(c1)C(CC(=O)NC(CC(C)C)C(=O)NC(CC(C)C)C(=O)NCc1ccc([N+](=O)[O-])cc1)CC2=O` (mixture of isomers) [Compound 195], the IC50 came out at 10 µg/mL.

`COc1ccc2c(c1)C(CC(=O)NC(CO)C(=O)NC(CC(C)C)C(N)=O)CC2=O` (mixture of isomers) [Compound 61] returned an IC50 of more than 10 µg/mL. To `COc1ccc2c(c1)C(CC(=O)NC(CC(C)C)C(=O)NC(CC(C)C)C(=O)NCC(N)=O)CC2=O` (mixture of isomers) [Compound 18] belongs 5 µg/mL; to `CCCCC(NC(=O)CC1CC(=O)c2ccc(OC)cc21)C(=O)NC(CC(C)C)C(N)=O` (mixture of isomers) [Compound 16], more than 10 µg/mL.

`COc1ccc2c(c1)C(CC(=O)NC(CC(C)C)C(=O)NC(CC(C)C)C(=O)NC13CC4CC(CC(C4)C1)C3)CC2=O` (mixture of isomers) [Compound 190] showed an IC50 of more than 10 µg/mL.

Compound `COc1ccc2c(c1)C(CC(=O)NC(CCCNC(=N)N)C(=O)NC(CC(C)C)C(N)=O)CC2=O` (mixture of isomers) [Compound 93] gave a half-inhibitory concentration (IC50) of more than 10 µg/mL.

By IC50 is commonly meant the concentration needed to halve the response being measured. Low readings indicate inhibition by little substance, high ones a need for much substance.
